The source of these data is patent publication US20200216417A1, “INHIBITORS OF FIBROBLAST ACTIVATION PROTEIN” (Praxis Biotech LLC, priority 2019, published 2020).

Assay [1] concerns the target T1, recombinant human PREP (rhPREP) (Homo sapiens, UniProt P48147).
T1 sequence (P48147 1-710): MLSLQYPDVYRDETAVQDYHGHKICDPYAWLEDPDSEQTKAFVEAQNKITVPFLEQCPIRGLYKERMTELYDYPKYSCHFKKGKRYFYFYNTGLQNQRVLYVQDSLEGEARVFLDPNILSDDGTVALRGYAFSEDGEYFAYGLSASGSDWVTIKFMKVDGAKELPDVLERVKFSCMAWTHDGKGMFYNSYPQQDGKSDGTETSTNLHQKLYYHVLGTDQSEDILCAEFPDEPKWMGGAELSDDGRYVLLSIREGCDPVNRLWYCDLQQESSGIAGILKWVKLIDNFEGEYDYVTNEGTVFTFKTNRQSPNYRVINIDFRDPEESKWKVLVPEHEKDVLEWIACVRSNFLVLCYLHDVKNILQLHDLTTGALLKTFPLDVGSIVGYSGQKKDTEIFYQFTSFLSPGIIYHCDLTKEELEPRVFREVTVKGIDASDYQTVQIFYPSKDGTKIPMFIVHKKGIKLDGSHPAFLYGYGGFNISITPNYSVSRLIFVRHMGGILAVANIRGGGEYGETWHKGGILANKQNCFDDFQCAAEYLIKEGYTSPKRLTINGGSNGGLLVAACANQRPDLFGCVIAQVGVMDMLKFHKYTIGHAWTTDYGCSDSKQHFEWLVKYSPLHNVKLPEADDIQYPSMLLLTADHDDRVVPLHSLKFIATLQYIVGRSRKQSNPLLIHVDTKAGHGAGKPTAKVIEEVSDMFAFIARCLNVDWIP
In words: PREP enzymatic activity assay, Z-Gly-Pro-AMC. Type of assay: biochemical.

For assay [2], the target named is T2, recombinant human DPPIV (rhDPPIV) (Homo sapiens, UniProt P27487).
T2 construct: purchased R&S system (so in the source)
T2 sequence (P27487 whole entry): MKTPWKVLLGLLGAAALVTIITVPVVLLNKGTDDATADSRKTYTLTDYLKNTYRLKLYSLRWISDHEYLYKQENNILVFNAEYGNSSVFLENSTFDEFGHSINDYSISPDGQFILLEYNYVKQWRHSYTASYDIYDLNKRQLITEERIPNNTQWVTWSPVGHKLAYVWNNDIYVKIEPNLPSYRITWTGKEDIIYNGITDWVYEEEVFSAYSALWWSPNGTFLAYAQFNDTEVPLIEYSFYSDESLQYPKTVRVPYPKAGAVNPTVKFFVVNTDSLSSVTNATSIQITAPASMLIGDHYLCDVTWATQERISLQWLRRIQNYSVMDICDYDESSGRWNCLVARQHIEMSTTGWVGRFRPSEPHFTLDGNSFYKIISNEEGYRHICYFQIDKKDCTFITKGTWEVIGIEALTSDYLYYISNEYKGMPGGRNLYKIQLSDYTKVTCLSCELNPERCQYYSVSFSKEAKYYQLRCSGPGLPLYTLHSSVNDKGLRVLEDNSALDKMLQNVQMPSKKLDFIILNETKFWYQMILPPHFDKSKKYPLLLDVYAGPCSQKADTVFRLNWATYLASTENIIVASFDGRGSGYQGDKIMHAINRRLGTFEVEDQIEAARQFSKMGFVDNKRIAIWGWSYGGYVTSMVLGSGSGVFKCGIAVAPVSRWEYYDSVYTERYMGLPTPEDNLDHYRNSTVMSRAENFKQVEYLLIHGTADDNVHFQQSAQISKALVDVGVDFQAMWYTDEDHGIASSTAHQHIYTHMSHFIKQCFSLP
In words: DPPIV enzymatic activity assay, H-Gly-Pro-pNA. Type of assay: biochemical.

Assay [3] addresses T3, recombinant human DPP9 (rhDPP9) (Homo sapiens, UniProt Q86TI2).
T3 construct: purchased R&S system / R&D systems (both sic) 5419-SE
In words: DPP9 inhibition assay, 10 ng rhDPP9, Tris-HCl/BSA buffer. The class given is biochemical. Particulars: Table 3B.

The target in assay [4] is T4, recombinant human FAPα (rhFAPα) (Homo sapiens, UniProt Q12884).
T4 construct: purchased R&S system (so in the source)
T4 sequence (Q12884 1-760): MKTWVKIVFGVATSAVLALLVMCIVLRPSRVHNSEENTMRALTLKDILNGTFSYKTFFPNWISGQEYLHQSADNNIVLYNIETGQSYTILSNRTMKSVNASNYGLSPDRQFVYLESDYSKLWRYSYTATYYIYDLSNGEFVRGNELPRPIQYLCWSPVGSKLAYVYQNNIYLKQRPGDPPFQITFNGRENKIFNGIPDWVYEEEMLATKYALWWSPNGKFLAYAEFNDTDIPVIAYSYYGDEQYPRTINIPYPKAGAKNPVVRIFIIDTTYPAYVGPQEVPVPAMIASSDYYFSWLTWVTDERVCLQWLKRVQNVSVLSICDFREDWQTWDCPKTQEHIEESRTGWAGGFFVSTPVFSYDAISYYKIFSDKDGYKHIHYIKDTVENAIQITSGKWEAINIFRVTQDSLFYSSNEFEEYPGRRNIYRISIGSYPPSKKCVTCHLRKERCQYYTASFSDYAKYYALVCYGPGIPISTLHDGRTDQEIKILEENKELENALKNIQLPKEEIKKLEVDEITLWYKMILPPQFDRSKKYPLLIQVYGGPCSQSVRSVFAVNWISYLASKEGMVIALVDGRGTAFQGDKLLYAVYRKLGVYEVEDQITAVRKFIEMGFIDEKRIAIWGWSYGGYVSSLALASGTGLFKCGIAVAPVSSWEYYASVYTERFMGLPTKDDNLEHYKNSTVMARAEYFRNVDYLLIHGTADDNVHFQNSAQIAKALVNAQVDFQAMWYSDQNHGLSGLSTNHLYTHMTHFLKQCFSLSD
In words: FAPα enzymatic exopeptidase (dipeptidase) activity assay, Z-Gly-Pro-AMC. Type of assay: biochemical.

The target of assay [5] is T5, DPPIV (Mus musculus, UniProt P28843).
T5 construct: from tissue; host or cells: C57BL/6 mouse plasma (EDTA)
T5 sequence (P28843 37-760 limits assumed): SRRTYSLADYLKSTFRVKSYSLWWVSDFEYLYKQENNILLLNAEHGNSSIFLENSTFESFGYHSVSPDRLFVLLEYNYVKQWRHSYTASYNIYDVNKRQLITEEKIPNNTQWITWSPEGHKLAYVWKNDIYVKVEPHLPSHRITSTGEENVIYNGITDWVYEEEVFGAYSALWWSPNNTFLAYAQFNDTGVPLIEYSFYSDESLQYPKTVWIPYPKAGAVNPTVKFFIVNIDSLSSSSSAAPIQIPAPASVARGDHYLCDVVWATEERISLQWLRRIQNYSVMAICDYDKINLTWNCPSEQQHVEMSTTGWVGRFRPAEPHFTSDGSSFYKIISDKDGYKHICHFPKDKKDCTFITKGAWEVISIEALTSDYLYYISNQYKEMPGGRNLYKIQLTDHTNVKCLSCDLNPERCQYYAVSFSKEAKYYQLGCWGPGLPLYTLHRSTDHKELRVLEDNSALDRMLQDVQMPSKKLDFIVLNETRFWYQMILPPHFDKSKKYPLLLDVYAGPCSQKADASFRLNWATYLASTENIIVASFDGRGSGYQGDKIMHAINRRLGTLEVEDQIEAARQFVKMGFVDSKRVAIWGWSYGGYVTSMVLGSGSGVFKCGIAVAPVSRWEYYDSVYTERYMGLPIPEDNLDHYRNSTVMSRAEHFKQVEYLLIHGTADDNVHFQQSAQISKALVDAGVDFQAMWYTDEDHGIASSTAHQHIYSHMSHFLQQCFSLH
Kind of assay: DPPIV enzymatic activity in mouse plasma (H-Gly-Pro-AMC). The class given is biochemical, C57BL/6 mouse. Particulars: H-Gly-Pro-AMC substrate. Here is the method: Approximately 500 μL of whole blood from one C57BL/6 mouse was harvested into BD Microtainer® tubes (K2) EDTA (#365974, Becton Dickinson and Co.) via terminal cardiac puncture. The blood sample was immediately centrifuged at approximately 9000 g at 4° C. for 5 minutes. Plasma was separated and stored at −80° C. in aliquots of 300 μL. To assay baseline DPPIV enzymatic exopeptidase activity, 5 μL of thawed, mouse plasma was diluted (1:5) in buffer (100 mM Tris-HCl, 400 mM NaCl, 50 mM salicylic acid, 1 mM EDTA, pH 7.5) and mixed with 35 μL of the same buffer before being pre-incubated with different concentrations of 10 μL of test compounds or DMSO vehicle for 15 minutes at 37° C. in 96-well black plates (Nunc, #237108). After pre-incubation, 50 μL of 200 μM dipeptide substrate H-Gly-Pro-AMC (Bachem, # L-1225) was added to the mixture. The assay was performed for 1 hour at 37° C. 7-Amino-4-Methylcoumarin (AMC) release was detected measuring fluorescence at an excitation wavelength of 360 nm and an emission wavelength of 460 nm using a Multifunction Microplate Reader (Synergy 4, Biotek). All measurements were carried out at least in duplicate.

Setting [6] is: exopeptidase inhibition at 1 μM test compound, Table 2, read-out: rhFAPα (% exo inh @ 1 μM).
Where [7] appears, read: exopeptidase inhibition at 1 μM test compound, Table 3B, read-out: rhFAPα % exo inh @ 1 μM.
The mark [8] stands for this setting: exopeptidase, Table 2, read-out: rhFAPα (exo IC50).
Where [9] appears, read: exopeptidase, Table 3A, read-out: rhFAPα (exo IC50).
The mark [10] stands for this setting: read-out: rhFAPα % exo inh @ 1 μM.
Where [11] appears, read: read-out: rhFAPα (% exo inh @ 1 μM).

Where two headings read alike, the source gives them in different places.

T3 sequence (Q86TI2 whole entry): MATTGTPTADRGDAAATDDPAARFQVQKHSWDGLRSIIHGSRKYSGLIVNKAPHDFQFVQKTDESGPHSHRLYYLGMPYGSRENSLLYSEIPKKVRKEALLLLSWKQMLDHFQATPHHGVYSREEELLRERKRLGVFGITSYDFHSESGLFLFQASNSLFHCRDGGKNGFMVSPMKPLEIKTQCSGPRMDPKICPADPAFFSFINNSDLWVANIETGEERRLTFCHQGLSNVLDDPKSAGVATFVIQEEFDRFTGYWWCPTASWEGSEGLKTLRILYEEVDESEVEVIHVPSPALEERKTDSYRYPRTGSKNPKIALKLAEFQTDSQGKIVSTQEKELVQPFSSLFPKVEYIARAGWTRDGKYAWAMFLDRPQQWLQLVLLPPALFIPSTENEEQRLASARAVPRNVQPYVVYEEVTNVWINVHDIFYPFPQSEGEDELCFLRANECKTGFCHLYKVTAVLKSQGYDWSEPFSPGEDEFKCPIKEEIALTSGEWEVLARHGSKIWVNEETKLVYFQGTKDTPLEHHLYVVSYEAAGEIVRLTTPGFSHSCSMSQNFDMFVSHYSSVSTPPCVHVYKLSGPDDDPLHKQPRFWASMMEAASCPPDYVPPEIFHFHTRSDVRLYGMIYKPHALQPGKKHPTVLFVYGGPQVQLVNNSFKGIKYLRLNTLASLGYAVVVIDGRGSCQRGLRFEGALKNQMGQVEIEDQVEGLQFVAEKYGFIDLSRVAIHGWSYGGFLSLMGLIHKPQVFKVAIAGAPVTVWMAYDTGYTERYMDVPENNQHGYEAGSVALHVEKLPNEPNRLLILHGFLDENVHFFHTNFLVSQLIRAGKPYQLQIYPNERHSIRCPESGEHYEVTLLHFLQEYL

On to `N#C[C@@H]1CC(F)(F)CN1C(=O)CNC(=O)c1ccncc1NCc1ccc(F)cc1` [Compound 2, (S)—N-(2-(2-cyano-4,4-difluoropyrrolidin-1-yl)-2-oxoethyl)-3-((4-fluorobenzyl)amino)isonicotinamide], for which the IC50 in assay [1] (Table 3A) is more than 10 µM; in assay [1] (Table 3B) it was more than 10 µM; in assay [2] (Table 3A), more than 10 µM; in assay [2] (Table 3B), more than 10 µM; in assay [3], more than 10 µM; in assay [4] (Table 3B, read-out: rhFAP IC50), less than 1 µM. Besides, the IC50 in assay [4] (setting [8]) was less than 1 µM; in assay [4] (setting [9]) it was less than 1 µM; in assay [5], less than 10 µM. For the same compound, the inhibition at 1 µM in assay [4] (setting [6]) and in assay [4] (setting [7]) was more than 50% each time.

Turning to `COc1ccc(C(=O)Nc2cnccc2C(=O)NCC(=O)N2CC(F)(F)C[C@H]2C#N)cc1` [Compound 3, (S)—N-(2-(2-cyano-4,4-difluoropyrrolidin-1-yl)-2-oxoethyl)-3-(4-methoxybenzamido)isonicotinamide], the IC50 was more than 10 µM in assay [1] (Table 3A); more than 10 µM in assay [1] (Table 3B); 1 to 10 µM in assay [2] (Table 3A); 1 to 10 µM in assay [2] (Table 3B); 1 to 10 µM in assay [3]; less than 1 µM in assay [4] (Table 3B, read-out: rhFAP IC50). Also, the IC50 in assay [4] (setting [8]) was less than 1 µM; in assay [4] (setting [9]) it was less than 1 µM; in assay [5], 1 to 10 µM. The inhibition at 1 µM in assay [4] (setting [10]) and in assay [4] (setting [11]) was more than 50% each time.

On to `N#C[C@@H]1CC(F)(F)CN1C(=O)CNC(=O)c1ccncc1NC(=O)COc1ccc(Cl)c(F)c1` [Compound 5, (S)-3-(2-(4-chloro-3-fluorophenoxy)acetamido)-N-(2-(2-cyano-4,4-difluoropyrrolidin-1-yl)-2-oxoethyl)isonicotinamide], for which the IC50 in assay [1] (Table 3A) was more than 10 µM; in assay [1] (Table 3B), more than 10 µM; in assay [2] (Table 3A), 1 to 10 µM; in assay [2] (Table 3B) it was 1 to 10 µM; in assay [3], 1 to 10 µM; in assay [4] (Table 3B, read-out: rhFAP IC50) it was less than 1 µM. The IC50 in assay [4] (setting [8]), in assay [4] (setting [9]) and in assay [5] was less than 1 µM each time. For the same compound, the inhibition at 1 µM in assay [4] (setting [6]) and in assay [4] (setting [7]) was more than 50% each time.

Regarding `N#C[C@@H]1CC(F)(F)CN1C(=O)CNC(=O)c1ccncc1Cc1ccccc1F` [Compound 7, (S)—N-(2-(2-cyano-4,4-difluoropyrrolidin-1-yl)-2-oxoethyl)-3-(2-fluorobenzyl)isonicotinamide], the IC50 in assay [1] (Table 3A) was 1 to 10 µM; in assay [1] (Table 3B), 1 to 10 µM; in assay [2] (Table 3A), more than 10 µM; in assay [2] (Table 3B), more than 10 µM; in assay [3] it was 1 to 10 µM; in assay [4] (Table 3B, read-out: rhFAP IC50), less than 1 µM. The IC50 in assay [4] (setting [8]) was less than 1 µM; in assay [4] (setting [9]) it was less than 1 µM; in assay [5], less than 10 µM. In addition, the inhibition at 1 µM in assay [4] (setting [6]) and in assay [4] (setting [7]) was more than 50% in each case.

Consider `N#C[C@@H]1CC(F)(F)CN1C(=O)CNC(=O)c1ccncc1Cc1ccc(F)cc1` [Compound 8, (S)—N-(2-(2-cyano-4,4-difluoropyrrolidin-1-yl)-2-oxoethyl)-3-(4-fluorobenzyl)isonicotinamide], for which the IC50 in assay [1] (Table 3A) was more than 10 µM; in assay [1] (Table 3B), more than 10 µM; in assay [2] (Table 3A), more than 10 µM; in assay [2] (Table 3B), more than 10 µM; in assay [3], 1 to 10 µM; in assay [4] (Table 3B, read-out: rhFAP IC50), less than 1 µM. Also, the figures for the IC50 in assay [4] (setting [8]), in assay [4] (setting [9]) and in assay [5] were less than 1 µM, less than 1 µM and less than 10 µM, respectively. Further, the inhibition at 1 µM in assay [4] (setting [6]) and in assay [4] (setting [7]) was more than 50% each time.

Regarding `N#C[C@@H]1CC(F)(F)CN1C(=O)CNC(=O)c1ccncc1/C=C/c1ccc(Cl)cc1` [Compound 9, (S,E)-3-(4-chlorostyryl)-N-(2-(2-cyano-4,4-difluoropyrrolidin-1-yl)-2-oxoethyl)isonicotinamide], the IC50 in assay [1] (Table 3A) was more than 10 µM; in assay [1] (Table 3B), more than 10 µM; in assay [2] (Table 3A), more than 10 µM; in assay [2] (Table 3B), more than 10 µM; in assay [3], less than 1 µM; in assay [4] (Table 3B, read-out: rhFAP IC50), less than 1 µM. For the same compound, the results for the concentration for half-maximal inhibition (IC50) in assay [4] (setting [8]), in assay [4] (setting [9]) and in assay [5] were less than 1 µM, less than 1 µM and less than 10 µM, respectively. The inhibition at 1 µM in assay [4] (setting [10]) and in assay [4] (setting [11]) was more than 50% in each case.
